Measured values published in patent US7858796B2, “Chemical compounds” (Glaxo Group Limited, priority 2004, dated 2010).

tested on: human monocyte stimulated cytokine production (TNF-α); assay: Monocyte Assay (LPS-stimulated TNF-α production); type: cell-based; conditions: human CD14+ monocytes, 200 ng/mL LPS, 24 hrs, TNF-α by ELISA
Method: Effect of IKK-β inhibition on human monocyte stimulated cytokine production was assessed as follows: Monocytes were isolated from heparinized whole blood by Ficoll gradient, followed by purification of CD14+ cells using MACS magnetic cell separation beads. Isolated monocytes were then adhered to 96-well culture plates at 1×10^6 cells/mL in RPMI 1640 10% FBS (JRH Biosciences, Lenexa Kans.) for 2 h. to further enrich the monocyte population. The media was then removed, cells washed once with RPMI 1640, and 0.125 mL RPMI 1640 10% FBS was added to the wells. Test compounds are added to the wells 30 minutes prior to stimulation with a final vehicle concentration of 0.1% DMSO. Monocytes were activated by the addition of 200 ng/mL endotoxin (LPS; E. coli serotype 026:B6) (Sigma, St. Louis, Mo.) and incubated for 24 hrs at 37 C. Cell-free supernates were analyzed by ELISA for TNF-α using Pharmingen matched pair Abs. Viability of the cells was determined by10% trypan blue exclusion.

| Structure (SMILES) | IC50 |
| --- | --- |
| NC(=O)c1cc(-c2ccsc2)cc2c(C3CCN(S(=O)(=O)CCCN4CCOCC4)CC3)c[nH]c12 [Example 74, 3-(1-{[3-(4-morpholinyl)propyl]sulfonyl}-4-piperidinyl)-5-(3-thienyl)-1H-indole-7-carboxamide] | < 10 µM |
| CN1CCN(CCCS(=O)(=O)N2CCC(c3c[nH]c4c(C(N)=O)cc(-c5ccsc5)cc34)CC2)CC1 [Example 72, 3-(1-{[3-(4-methyl-1-piperazinyl)propyl]sulfonyl}-4-piperidinyl)-5-(3-thienyl)-1H-indole-7-carboxamide] | < 10 µM |
| NC(=O)c1cc(-c2ccccc2)cc2c(C3CCN(S(=O)(=O)CCCN4CCOCC4)CC3)c[nH]c12 [Example 6, 3-(1-{[3-(4-morpholinyl)propyl]sulfonyl}-4-piperidinyl)-5-phenyl-1H-indole-7-carboxamide] | < 10 µM |
| NC(=O)c1cc(-c2cccc(CO)c2)cc2c(C3CCN(S(=O)(=O)CCCN4CCCC4)CC3)c[nH]c12 [Example 83, 5-[3-(hydroxymethyl)phenyl]-3-(1-{[3-(1-pyrrolidinyl)propyl]sulfonyl}-4-piperidinyl)-1H-indole-7-carboxamide] | < 10 µM |
| C[C@@H]1CC[C@@H](C)N1CCCS(=O)(=O)N1CCC(c2c[nH]c3c(C(N)=O)cc(-c4ccccc4)cc23)CC1 [Example 69, 3-[1-({3-[(2R,5R)-2,5-dimethyl-1-pyrrolidinyl]propyl}sulfonyl)-4-piperidinyl]-5-phenyl-1H-indole-7-carboxamide] | < 10 µM |
| CN(C)CCCS(=O)(=O)N1CCC(c2c[nH]c3c(C(N)=O)cc(-c4cccs4)cc23)CC1 [Example 10, 3-(1-{[3-(dimethylamino)propyl]sulfonyl}-4-piperidinyl)-5-(2-thienyl)-1 indole-7-carboxamide] | < 10 µM |
| NC(=O)c1cc(-c2ccccc2)cc2c(C3CCN(S(=O)(=O)CCOCCN4CCCCC4)CC3)c[nH]c12 [Example 178, 5-phenyl-3-{1-[(2-{[2-(1-piperidinyl)ethyl]oxy}ethyl)sulfonyl]-4-piperidinyl}-1H-indole-7-carboxamide] | < 10 µM |
| CC(C)N(CCCS(=O)(=O)N1CCC(c2c[nH]c3c(C(N)=O)cc(-c4ccccc4)cc23)CC1)C(C)C [Example 67, 3-[1-({3-[bis(1-methylethyl)amino]propyl}sulfonyl)-4-piperidinyl]-5-phenyl-1H-indole-7-carboxamide] | < 10 µM |
| CN(C)CCS(=O)(=O)N1CCC(c2c[nH]c3c(C(N)=O)cc(-c4ccsc4)cc23)CC1 [Example 17, 3-(1-{[2-(dimethylamino)ethyl]sulfonyl}-4-piperidinyl)-5-(3-thienyl)-1H-indole-7-carboxamide] | < 10 µM |
| NC(=O)c1cc(-c2ccccc2)cc2c(C3CCN(S(=O)(=O)CCCO)CC3)c[nH]c12 [Example 174, 3-{1-[(3-hydroxypropyl)sulfonyl]-4-piperidinyl}-5-phenyl-1H-indole-7-carboxamide] | < 10 µM |
| NC(=O)c1cc(-c2ccc(CO)s2)cc2c(C3CCN(S(=O)(=O)CCCN4CCCC4)CC3)c[nH]c12 [Example 63, 5-[5-(hydroxymethyl)-2-thienyl]-3-(1-{[3-(1-pyrrolidinyl)propyl]sulfonyl}-4-piperidinyl)-1H-indole-7-carboxamide] | < 10 µM |
| NC(=O)c1cc(-c2ccsc2)cc2c(C3CCN(S(=O)(=O)CCCN4CCCC4)CC3)c[nH]c12 [Example 8, 3-(1-{[3-(1-pyrrolidinyl)propyl]sulfonyl}-4-piperidinyl)-5-(3-thienyl)-1H-indole-7-carboxamide] | < 10 µM |
| CN(C)CCCS(=O)(=O)N1CCC(c2c[nH]c3c(C(N)=O)cc(-c4cccc(CO)c4)cc23)CC1 [Example 76, 3-(1-{[3-(dimethylamino)propyl]sulfonyl}-4-piperidinyl)-5-[3-(hydroxymethyl)phenyl]-1H-indole-7-carboxamide] | < 10 µM |
| CN1CCN(CCCS(=O)(=O)N2CCC(c3c[nH]c4c(C(N)=O)cc(-c5ccccc5)cc34)CC2)CC1 [Example 4, 3-(1-{[3-(4-methyl-1-piperazinyl)propyl]sulfonyl}-4-piperidinyl)-5-phenyl-1H-indole-7-carboxamide] | < 10 µM |
| NC(=O)c1cc(-c2cccs2)cc2c(C3CCN(S(=O)(=O)CCCN4CCCC4)CC3)c[nH]c12 [Example 11, 3-(1-{[3-(1-pyrrolidinyl)propyl]sulfonyl}-4-piperidinyl)-5-(2-thienyl)-1 indole-7-carboxamide] | < 10 µM |
| NC(=O)c1cc(-c2cccs2)cc2c(C3CCN(S(=O)(=O)CCNC4CCCC4)CC3)c[nH]c12 [Example 15, 3-(1-{[2-(cyclopentylamino)ethyl]sulfonyl}-4-piperidinyl)-5-(2-thienyl)-1H-indole-7-carboxamide] | < 10 µM |
| NC(=O)c1cc(-c2cccs2)cc2c(C3CCN(S(=O)(=O)CCCNC4CCCC4)CC3)c[nH]c12 [Example 13, 3-(1-{[3-(cyclopentylamino)propyl]sulfonyl}-4-piperidinyl)-5-(2-thienyl)-1H-indole-7-carboxamide] | < 10 µM |
| NC(=O)c1cc(-c2ccsc2)cc2c(C3CCN(S(=O)(=O)CCCN4CCC(O)CC4)CC3)c[nH]c12 [Example 71, 3-(1-{[3-(4-hydroxy-1-piperidinyl)propyl]sulfonyl}-4-piperidinyl)-5-(3-thienyl)-1H-indole-7-carboxamide] | < 10 µM |
| NC(=O)c1cc(-c2ccccc2)cc2c(C3CCN(S(=O)(=O)CCCNC4CCNCC4)CC3)c[nH]c12 [Example 109, 5-phenyl-3-(1-{[3-(4-piperidinylamino)propyl]sulfonyl}-4-piperidinyl)-11 indole-7-carboxamide] | < 10 µM |
| CNCCS(=O)(=O)N1CCC(c2c[nH]c3c(C(N)=O)cc(-c4ccccc4)cc23)CC1 [Example 22, 3-(1-{[2-(methylamino)ethyl]sulfonyl}-4-piperidinyl)-5-phenyl-1H-indole-7-carboxamide] | < 10 µM |
| NCCS(=O)(=O)N1CCC(c2c[nH]c3c(C(N)=O)cc(-c4ccccc4)cc23)CC1 [Example 1, 3-{1-[(2-aminoethyl)sulfonyl]-4-piperidinyl}-5-phenyl-1H-indole-7-carboxamide] | < 10 µM |
| CCNCc1cccc(-c2cc(C(N)=O)c3[nH]cc(C4CCN(S(=O)(=O)CCCN(C)C)CC4)c3c2)c1 [Example 96, 3-(1-{[3-(dimethylamino)propyl]sulfonyl}-4-piperidinyl)-5-{3-[(ethylamino)methyl]phenyl}-1H-indole-7-carboxamide] | < 10 µM |

Other lines, results leading:

| IC50 | Structure (SMILES) |
| --- | --- |
| < 10 µM | CONCCS(=O)(=O)N1CCC(c2c[nH]c3c(C(N)=O)cc(-c4ccccc4)cc23)CC1 [Example 215, 3-[1-({2-[(methyloxy)amino]ethyl}sulfonyl)-4-piperidinyl]-5-phenyl-1H-indole-7-carboxamide] |
| < 10 µM | Cn1cnc(S(=O)(=O)N2CCC(c3c[nH]c4c(C(N)=O)cc(-c5ccsc5)cc34)CC2)c1 [Example 280, 3-{1-[(1-methyl-1H-imidazol-4-yl)sulfonyl]-4-piperidinyl}-5-(3-thienyl)-1H-indole-7-carboxamide] |
| < 10 µM | CC(=O)Nc1nc(C)c(S(=O)(=O)N2CCC(c3c[nH]c4c(C(N)=O)cc(-c5ccccc5)cc34)CC2)s1 [Example 272, 3-(1-{[2-(acetylamino)-4-methyl-1,3-thiazol-5-yl]sulfonyl}-4-piperidinyl)-5-phenyl-1H-indole-7-carboxamide] |
| < 10 µM | Cn1cnc(S(=O)(=O)N2CCC(c3c[nH]c4c(C(N)=O)cc(-c5ccccc5)cc34)CC2)c1 [Example 267, 3-{1-[(1-methyl-1H-imidazol-4-yl)sulfonyl]-4-piperidinyl}-5-phenyl-1H-indole-7-carboxamide] |
| < 10 µM | Cc1noc(C)c1S(=O)(=O)N1CCC(c2c[nH]c3c(C(N)=O)cc(-c4ccccc4)cc23)CC1 [Example 277, 3-{1-[(3,5-dimethyl-4-isoxazolyl)sulfonyl]-4-piperidinyl}-5-phenyl-1H-indole-7-carboxamide] |
| < 10 µM | COCCCS(=O)(=O)N1CCC(c2c[nH]c3c(C(N)=O)cc(-c4cccs4)cc23)CC1 [Example 262, 3-(1-{[3-(methyloxy)propyl]sulfonyl}-4-piperidinyl)-5-(2-thienyl)-1H-indole-7-carboxamide] |
| < 10 µM | CNCc1cccc(-c2cc(C(N)=O)c3[nH]cc(C4CCN(S(=O)(=O)CCCOC)CC4)c3c2)c1 [Example 223, 5-{3-[(methylamino)methyl]phenyl}-3-(1-{[3-(methyloxy)propyl]sulfonyl}-4-piperidinyl)-1H-indole-7-carboxamide] |
| < 10 µM | Cc1nn(C)c(Cl)c1S(=O)(=O)N1CCC(c2c[nH]c3c(C(N)=O)cc(-c4ccccc4)cc23)CC1 [Example 273, 3-{1-[(5-chloro-1,3-dimethyl-1H-pyrazol-4-yl)sulfonyl]-4-piperidinyl}-5-phenyl-1H-indole-7-carboxamide] |
| < 10 µM | CONCCCS(=O)(=O)N1CCC(c2c[nH]c3c(C(N)=O)cc(-c4ccccc4)cc23)CC1 [Example 219, 3-[1-({3-[(methyloxy)amino]propyl}sulfonyl)-4-piperidinyl]-5-phenyl-1H-indole-7-carboxamide] |
| < 10 µM | NC(=O)c1cc(-c2ccccc2)cc2c(C3CCN(S(=O)(=O)c4cccs4)CC3)c[nH]c12 [Example 268, 5-phenyl-3-[1-(2-thienylsulfonyl)-4-piperidinyl]-1H-indole-7-carboxamide] |
| < 10 µM | CCOCCCS(=O)(=O)N1CCC(c2c[nH]c3c(C(N)=O)cc(-c4ccsc4)cc23)CC1 [Example 263, 3-(1-{[3-(ethyloxy)propyl]sulfonyl}-4-piperidinyl)-5-(3-thienyl)-1H-indole-7-carboxamide] |
